Experimental data published in US8143237B2, “Anti-cancer drugs, and uses relating for malignant melanoma and other cancers” (Kasina Laila Innova Pharmaceuticals Private Limited, priority 2009, dated 2012).
Converted amounts (≈) assume the structure as drawn.

Assays:
[1] = system: mouse malignant melanoma B16 F0 cells; assay: MTT based cell proliferation assay, B16 F0 cells; conditions: Mus musculus, B16F0, 72 h, MTT; for inhibition at 60 µg/mL: at 60 μg/ml; for inhibition at 60 µg/mL / inhibition at 100 µg/mL: three days; for inhibition at 100 µg/mL: at 100 μg/ml
Description: (§1) The cytotoxic efficacies of the various selenopheno triazene compounds (compounds 1 to 16) was evaluated in both human malignant melanoma A375 cells and mouse malignant melanoma B16 F0 cells by MTT cell proliferation assay kit (Roche Applied Sciences, Germany). The assay was carried out according to the instruction provided by the vendor. Briefly, equal numbers of cells was plated in 96-well flat-bottomed plates and were incubated with both DTIC and the test compounds (compounds 1 to 16) at various concentrations for a period of three days. […] Finally, the cells were solubilized by adding solubilizing solution and allowed to incubate at 37° C. overnight. After complete solubilization of the formazan crystals, the absorbance was read at 540 nm in a microplate reader (BioRad, USA).

[2] = system: human malignant melanoma A375 cells; assay: MTT based cell proliferation assay, A375 cells; conditions: A-375, 72 h, at 10 μg/ml, three days
Description: as §1

Row | SMILES | melting point [°C] | inhibition at 60 µg/mL [1] [%] | inhibition at 10 µg/mL [2] [%] | inhibition at 100 µg/mL [1] [%] | IC50 ([1]; three days incubation, read-out: Cell proliferation inhibition in B16F0 cells, IC50) [µg/mL]
1 | Cn1nnc2c([se]c3ncccc32)c1=O [Compound 15, 3-methyl-1,2,3-triazino[4′,5′-5,4]selenopheno[2,3-b]pyridine-4-one] | 202 to 204 |  |  |  | 
2 | CN(C)/N=N/c1cc(C(C)(C)C)[se]c1C(N)=O [Compound 4, 3-[(dimethylamino)diazenyl]-5-(tert-butyl)selenophene-2-carboxamide] | 218 to 220 | 34 | 0.5 |  | 
3 | Cn1nnc2c([se]c3ccccc32)c1=O [Compound 16, 3-methylbenzo[b]1,2,3-triazino[4,5-d]selenophen-4-one] | 190 to 192 | 31 |  |  | 
4 | Cn1nnc2cc(C(C)(C)C)[se]c2c1=O [Compound 13, 6-(tert-butyl)-3-methylselenopheno[3,2-d]1,2,3-triazin-4-one] | 98 to 100 | 33 |  |  | 
5 | CN(C)/N=N/c1cc(C(N)=O)[se]c1C(N)=O [Compound 2, 3-[(dimethylamino)diazenyl]selenophene-2,5-dicarboxamide] | 266 to 268 |  |  |  | 
6 | Cn1nnc2c3c([se]c2c1=O)CCCC3 [Compound 14, 3-methyl-6,7,8,9-tetrahydrobenzo[1,2-b]1,2,3-triazino[4,5-d]selenophen-4-one] |  | 17 |  |  | 
7 | Cn1nnc2cc(-c3ccccc3)[se]c2c1=O [Compound 12, 3-methyl-6-phenylselenopheno[3,2-d]1,2,3-triazin-4-one] | 232 to 234 |  |  | 27 | 
8 | CN(C)/N=N/c1c(C(=O)O)[se]c2c1CCCC2 [Compound 9, 3-[(dimethylamino)diazenyl]-4,5,6,7-tetrahydrobenzo[1,2-b]selenophene-2-carboxylic acid] | 100 to 102 | 32 |  |  | 
9 | CN(C)/N=N/c1c(C(N)=O)[se]c2c1CCCC2 [Compound 5, 3-[(dimethylamino)diazenyl]-4,5,6,7-tetrahydrobenzo[1,2-b]selenophene-2-carboxamide] | 198 to 202 | 0.41 |  |  | 
10 | CN(C)/N=N/c1cc(C(C)(C)C)[se]c1C#N [Compound 11, 3-[(dimethylamino)diazenyl]-5-(tert-butyl)selenophene-2-carbonitrile] | 58 to 60 | 48 |  |  | 
11 | CN(C)/N=N/c1c(C(N)=O)[se]c2ncccc12 [Compound 6, 3-[(dimethylamino)diazenyl]selenopheno[2,3-b]pyridine-2-carboxamide] | 230 to 232 | 4 |  |  | 
12 | CN(C)/N=N/c1c(C(=O)O)[se]c2ncccc12 [Compound 10, 3-[(dimethylamino)diazenyl]selenopheno[2,3-b]pyridine-2-carboxylic acid] | 172 to 174 | 12 |  |  | 
13 | CN(C)/N=N/c1cc(-c2ccccc2)[se]c1C(=O)O [Compound 7, 3-[(dimethylamino)diazenyl]-5-phenylselenophene-2-carboxylic acid] | 212 to 214 |  |  | 5 | 
14 | CN(C)/N=N/c1cc(C(C)(C)C)[se]c1C(=O)O [Compound 8, 3-[(dimethylamino)diazenyl]-5-(tert-butyl)selenophene-2-carboxylic acid] | 120 to 122 |  | 24 |  | 43.6 (≈ 144 µM)
15 | CN(C)/N=N/c1cc(-c2ccccc2)[se]c1C(N)=O [Compound 3, 3-[(dimethylamino)diazenyl]-5-phenylselenophene-2-carboxamide] | 222 to 224 |  | 14 | 30 | 
